Reference: patent US10758534B2 (Vertex Pharmaceuticals Incorporated, priority 2014, dated 2020)

Target: T1, F508del (Homo sapiens, UniProt P13569, DEL508-508)
T1 construct: expressed in transfected cells
Assay: Protocol 2: FRET membrane potential optical assay (VIPR), identification of correction compounds
Format: cell-based
Conditions: F508del CFTR modulator activity; compounds of Table 1; read-out: EC30
Outline: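 Corrector readout: membrane-potential FRET (CC2-DMPE donor, DiSBAC2(3) acceptor) on VIPR II after Cl⁻-free gluconate bath with 10 μM forskolin and 20 μM genistein. Before this, F508del-expressing NIH3T3 cells were exposed to test compound for 16 h at 37 °C without serum; 27 °C incubation served as temperature-correction control.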

T1 sequence (P13569 with tags, fused parts or gaps DEL508-508): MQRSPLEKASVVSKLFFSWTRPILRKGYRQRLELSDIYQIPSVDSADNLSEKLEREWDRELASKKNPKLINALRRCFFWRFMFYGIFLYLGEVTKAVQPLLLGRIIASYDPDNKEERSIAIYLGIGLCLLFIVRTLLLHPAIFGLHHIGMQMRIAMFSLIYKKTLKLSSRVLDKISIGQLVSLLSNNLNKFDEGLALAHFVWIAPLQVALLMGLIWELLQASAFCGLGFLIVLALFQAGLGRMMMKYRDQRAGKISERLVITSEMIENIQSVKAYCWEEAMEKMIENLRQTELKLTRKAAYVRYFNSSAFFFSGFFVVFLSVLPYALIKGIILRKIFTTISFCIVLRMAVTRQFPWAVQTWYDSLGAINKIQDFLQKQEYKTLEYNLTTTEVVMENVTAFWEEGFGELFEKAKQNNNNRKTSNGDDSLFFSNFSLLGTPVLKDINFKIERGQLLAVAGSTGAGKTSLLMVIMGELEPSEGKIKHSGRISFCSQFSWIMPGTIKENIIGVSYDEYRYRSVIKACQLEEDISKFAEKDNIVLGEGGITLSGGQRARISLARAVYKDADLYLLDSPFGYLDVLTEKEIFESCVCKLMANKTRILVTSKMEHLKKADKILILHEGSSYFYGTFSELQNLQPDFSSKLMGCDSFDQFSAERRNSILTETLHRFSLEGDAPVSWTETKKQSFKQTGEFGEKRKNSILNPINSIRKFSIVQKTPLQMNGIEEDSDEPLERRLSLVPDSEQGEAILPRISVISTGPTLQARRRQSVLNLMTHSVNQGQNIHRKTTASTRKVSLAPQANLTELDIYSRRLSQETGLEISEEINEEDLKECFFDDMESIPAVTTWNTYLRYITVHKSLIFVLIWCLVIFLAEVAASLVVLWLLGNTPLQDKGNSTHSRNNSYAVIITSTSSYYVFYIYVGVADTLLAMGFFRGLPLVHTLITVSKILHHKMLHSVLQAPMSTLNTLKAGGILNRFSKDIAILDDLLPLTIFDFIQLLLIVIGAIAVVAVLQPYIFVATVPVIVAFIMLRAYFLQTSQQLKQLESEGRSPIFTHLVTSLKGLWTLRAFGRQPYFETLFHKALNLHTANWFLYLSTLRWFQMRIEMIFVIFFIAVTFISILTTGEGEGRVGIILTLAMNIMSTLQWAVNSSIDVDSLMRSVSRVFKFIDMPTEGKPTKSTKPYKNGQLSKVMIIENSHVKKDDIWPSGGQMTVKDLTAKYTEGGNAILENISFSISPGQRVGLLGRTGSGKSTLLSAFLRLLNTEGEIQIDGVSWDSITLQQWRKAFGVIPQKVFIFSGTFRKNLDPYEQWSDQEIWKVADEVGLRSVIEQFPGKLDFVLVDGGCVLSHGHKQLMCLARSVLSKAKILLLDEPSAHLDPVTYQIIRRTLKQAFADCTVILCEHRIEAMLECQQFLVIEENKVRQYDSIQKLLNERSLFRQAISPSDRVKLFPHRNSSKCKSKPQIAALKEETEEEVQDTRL

Row | Structure (SMILES) | EC30 [µM]
1 | C[C@@H]1CN(c2nc(-c3ccc(C#N)cc3)ccc2C(=O)NS(=O)(=O)c2cccnc2N)C(C)(C)C1 [Compound 2096, N-[(2-amino-3-pyridyl)sulfonyl]-6-(4-cyanophenyl)-2-[(4S)-2,2,4-trimethylpyrrolidin-1-yl]pyridine-3-carboxamide] | < 3
2 | CC1CN(c2ncccc2C(=O)NS(=O)(=O)c2cccc(OCc3cccs3)n2)C(C)(C)C1 (centres unmarked) [Compound 2181, N—[[6-(2-thienylmethoxy)-2-pyridyl]sulfonyl]-2-(2,2,4-trimethylpyrrolidin-1-yl)pyridine-3-carboxamide] | < 3
3 | Cc1cccc(-c2ccc(C(=O)NS(=O)(=O)c3ccccc3)c(N3C[C@@H](C)CC3(C)C)n2)c1O [Compound 2133, N-(benzenesulfonyl)-6-(2-hydroxy-3-methyl-phenyl)-2-[(4S)-2,2,4-trimethylpyrrolidin-1-yl]pyridine-3-carboxamide] | < 3
4 | Cc1cc(-c2ccc(C(=O)NS(=O)(=O)c3cccc(N)n3)c(N3C[C@@H](C)CC3(C)C)n2)cnc1NC(C)C [Compound 2685] | < 3
5 | CC1CN(c2ncccc2C(=O)NS(=O)(=O)c2cccc(NCCc3ccc(Cl)cc3)n2)C(C)(C)C1 (centres unmarked) [Compound 2262, N—[[6-[2-(4-chlorophenyl)ethylamino]-2-pyridyl]sulfonyl]-2-(2,2,4-trimethylpyrrolidin-1-yl)pyridine-3-carboxamide] | < 3
6 | CC1CN(c2ncccc2C(=O)NS(=O)(=O)c2cccc(Nc3cccc(N(C)C)c3)n2)C(C)(C)C1 (centres unmarked) [Compound 2517, N—[[6-[3-(dimethylamino)anilino]-2-pyridyl]sulfonyl]-2-(2,2,4-trimethylpyrrolidin-1-yl)pyridine-3-carboxamide] | < 3
7 | CCOc1ccc(-c2ccc(C(=O)NS(=O)(=O)c3ccc[nH]c3=O)c(N3C[C@@H](C)CC3(C)C)n2)cc1 [Compound 2207, 6-(4-ethoxyphenyl)-N-[(2-oxo-1H-pyridin-3-yl)sulfonyl]-2-[(4S)-2,2,4-trimethylpyrrolidin-1-yl]pyridine-3-carboxamide] | < 3
8 | CC1CN(c2ncccc2C(=O)NS(=O)(=O)c2cccc(N3CCOCC3)n2)C(C)(C)C1 (centres unmarked) [Compound 2464, N-[(6-morpholino-2-pyridyl)sulfonyl]-2-(2,2,4-trimethylpyrrolidin-1-yl)pyridine-3-carboxamide] | 3 to 10
9 | Cc1cc(C)cc(-c2ccc(C(=O)NS(=O)(=O)c3cccnc3N)c(N3C[C@@H](C)CC3(C)C)n2)c1 [Compound 2127, N-[(2-amino-3-pyridyl)sulfonyl]-6-(3,5-dimethylphenyl)-2-[(4S)-2,2,4-trimethylpyrrolidin-1-yl]pyridine-3-carboxamide] | < 3
10 | CC1CN(c2ncccc2C(=O)NS(=O)(=O)c2cccc(Oc3cc(Cl)ccc3F)n2)C(C)(C)C1 (centres unmarked) [Compound 2598, N—[[6-(5-chloro-2-fluoro-phenoxy)-2-pyridyl]sulfonyl]-2-(2,2,4-trimethylpyrrolidin-1-yl)pyridine-3-carboxamide] | < 3
11 | CC(C)=CCOc1cccc(S(=O)(=O)NC(=O)c2cccnc2N2CC(C)CC2(C)C)n1 (centres unmarked) [Compound 2648, N—[[6-(3-methylbut-2-enoxy)-2-pyridyl]sulfonyl]-2-(2,2,4-trimethylpyrrolidin-1-yl)pyridine-3-carboxamide] | < 3
12 | COc1cc(-c2ccc(C(=O)NS(=O)(=O)c3cccnc3N)c(N3C[C@@H](C)CC3(C)C)n2)cc(F)c1F [Compound 1998, N-[(2-amino-3-pyridyl)sulfonyl]-6-(3,4-difluoro-5-methoxy-phenyl)-2-[(4S)-2,2,4-trimethylpyrrolidin-1-yl]pyridine-3-carboxamide] | < 3
13 | CC1CN(c2ncc(-c3cc(F)cc(F)c3)cc2C(=O)NS(=O)(=O)c2cccc(N)n2)C(C)(C)C1 (centres unmarked) [Compound 2259, N-[(6-amino-2-pyridyl)sulfonyl]-5-(3,5-difluorophenyl)-2-(2,2,4-trimethylpyrrolidin-1-yl)pyridine-3-carboxamide] | < 3
14 | Cc1cccc(-c2ccc(C(=O)NS(=O)(=O)c3ccc[nH]c3=O)c(N3C[C@@H](C)CC3(C)C)n2)c1O [Compound 2300, 6-(2-hydroxy-3-methyl-phenyl)-N-[(2-oxo-1H-pyridin-3-yl)sulfonyl]-2-[(4S)-2,2,4-trimethylpyrrolidin-1-yl]pyridine-3-carboxamide] | 3 to 10
15 | COc1ccc(COc2cccc(S(=O)(=O)NC(=O)c3ccc(C(C)(C)C)nc3N3CC(C)CC3(C)C)n2)cc1 (centres unmarked) [Compound 2713] | < 3
16 | CC1CN(c2ncccc2C(=O)NS(=O)(=O)c2cccc(N3CCC(F)CC3)n2)C(C)(C)C1 (centres unmarked) [Compound 2453, N—[[6-(4-fluoro-1-piperidyl)-2-pyridyl]sulfonyl]-2-(2,2,4-trimethylpyrrolidin-1-yl)pyridine-3-carboxamide] | < 3

Same assay, conditions: Table 3; compounds of Table 1 as modulators of CFTR activity; protocol not stated

Row | Structure (SMILES) | EC30
17 | COc1ccc(-c2cc(C(=O)NS(=O)(=O)c3ccccc3)n(Cc3c(C)cccc3C)n2)cc1 [Compound 49, N-(benzenesulfonyl)-2-[(2,6-dimethylphenyl)methyl]-5-(4-methoxyphenyl)pyrazole-3-carboxamide] | +++ (“+++” means <3 uM)
18 | CC(C)(C)c1cc(C(=O)NS(=O)(=O)c2ccccc2)n(Cc2cc(F)ccc2C(F)(F)F)n1 [Compound 3, 3-(tert-butyl)-1-(5-fluoro-2-(trifluoromethyl)benzyl)-N-(phenylsulfonyl)-1H-pyrazole-5-carboxamide] | +++ (“+++” means <3 uM)
19 | Cc1cccc(C)c1Oc1nc(-c2cc(F)cc(OCC(C)C)c2)ccc1C(=O)NS(=O)(=O)c1ccn[nH]1 [Compound 671, 2-(2,6-dimethylphenoxy)-6-(3-fluoro-5-isobutoxy-phenyl)-N-(1H-pyrazol-5-ylsulfonyl)pyridine-3-carboxamide] | +++ (“+++” means <3 uM)
20 | CC(C)Oc1ccc(-c2ccc(C(=O)NS(=O)(=O)c3cccc(N)n3)c(N3CCCC(c4ccccc4)C3)n2)cn1 (centres unmarked) [Compound 233, N-[(6-amino-2-pyridyl)sulfonyl]-6-(6-isopropoxy-3-pyridyl)-2-[-3-phenyl-1-piperidyl]pyridine-3-carboxamide] | +++ (“+++” means <3 uM)
21 | Cc1cc(C)c(Cc2nn(C(C)(C)C)cc2C(=O)NS(=O)(=O)c2ccccc2)c(C)c1 [Compound 63, N-(benzenesulfonyl)-1-tert-butyl-3-[(2,4,6-trimethylphenyl)methyl]pyrazole-4-carboxamide] | +++ (“+++” means <3 uM)
22 | CCCC1CCCN(c2nc(-c3ccc(OC(C)C)nc3)ccc2C(=O)NS(=O)(=O)c2cccc(N)n2)C1 (centres unmarked) [Compound 522, N-[(6-amino-2-pyridyl)sulfonyl]-6-(6-isopropoxy-3-pyridyl)-2-(3-propyl-1-piperidyl)pyridine-3-carboxamide] | +++ (“+++” means <3 uM)
23 | CC(C)COc1cc(F)cc(-c2ccc(C(=O)NS(=O)(=O)c3ccc[nH]c3=O)c(N3[C@H](C)CC[C@@H]3C)n2)c1 [Compound 307, 2-(2,5-dimethylpyrrolidin-1-yl)-6-(3-fluoro-5-isobutoxy-phenyl)-N-[(2-oxo-1H-pyridin-3-yl)sulfonyl]pyridine-3-carboxamide] | +++ (“+++” means <3 uM)
24 | Cc1cc(C)c(Oc2nc(C)ccc2C(=O)NS(=O)(=O)c2cccc(NC3CC3)n2)c(C)c1 [Compound 594, N-[[6-(cyclopropylamino)-2-pyridyl]sulfonyl]-6-methyl-2-(2,4,6-trimethylphenoxy)pyridine-3-carboxamide] | ++ (“++” means between 3 uM and 10 uM)
25 | Cc1cc(C)c(Oc2nc(C(C)(C)C)ncc2C(=O)NS(=O)(=O)c2cccc(N)c2)c(C)c1 [Compound 68, N-(3-aminophenyl)sulfonyl-2-tert-butyl-4-(2,4,6-trimethylphenoxy)pyrimidine-5-carboxamide] | +++ (“+++” means <3 uM)
26 | Cc1cc(C)c(Oc2nc(CCc3ccccc3)ccc2C(=O)NS(=O)(=O)c2cccc(N)n2)c(C)c1 [Compound 268, N-[(6-amino-2-pyridyl)sulfonyl]-6-phenethyl-2-(2,4,6-trimethylphenoxy)pyridine-3-carboxamide] | +++ (“+++” means <3 uM)
27 | Cc1cc(C)c(CN2Cc3ccccc3C2C(=O)NS(=O)(=O)c2cc(N)ccn2)c(C)c1 (centres unmarked) [Compound 32, N-[(4-amino-2-pyridyl)sulfonyl]-2-[(2,4,6-trimethylphenyl)methyl]isoindoline-1-carboxamide] | ++ (“++” means between 3 uM and 10 uM)
28 | Cc1cc(C)c(Oc2nc(-c3cccc(C)c3O)ccc2C(=O)NS(=O)(=O)c2cccc(N)n2)c(C)c1 [Compound 450, N-[(6-amino-2-pyridyl)sulfonyl]-6-(2-hydroxy-3-methyl-phenyl)-2-(2,4,6-trimethylphenoxy)pyridine-3-carboxamide] | +++ (“+++” means <3 uM)
29 | Cc1ccc(S(=O)(=O)NC(=O)c2cc(C(C)(C)C)nn2Cc2c(C)cccc2C)cc1N [Compound 312, N-(3-amino-4-methyl-phenyl)sulfonyl-5-tert-butyl-2-[(2,6-dimethylphenyl)methyl]pyrazole-3-carboxamide] | +++ (“+++” means <3 uM)
30 | CC1CCN(c2nc(C(C)(C)C)ccc2C(=O)NS(=O)(=O)c2cccc(N)n2)CC1 [Compound 794, N-[(6-amino-2-pyridyl)sulfonyl]-6-tert-butyl-2-(4-methyl-1-piperidyl)pyridine-3-carboxamide] | +++ (“+++” means <3 uM)
31 | Cc1cc(C)c(Oc2nc(C(C)(C)C)ccc2C(=O)NS(=O)(=O)c2cccc(N)n2)c(C)c1 [Compound 228, N-[(6-amino-2-pyridyl)sulfonyl]-6-tert-butyl-2-(2,4,6-trimethylphenoxy)pyridine-3-carboxamide] | +++ (“+++” means <3 uM)
32 | CC(C)COc1cc(F)cc(-c2ccc(C(=O)NS(=O)(=O)c3cccc(N)n3)c(N3CCC[C@@H](C)C3)n2)c1 [Compound 408, N-[(6-amino-2-pyridyl)sulfonyl]-6-(3-fluoro-5-isobutoxy-phenyl)-2-[(3R)-3-methyl-1-piperidyl]pyridine-3-carboxamide] | +++ (“+++” means <3 uM)
